Laboratory results as given in US20260158103A1, “USE OF CYCLOSPORINE ANALOGUES AS ANTITHROMBOTIC AGENTS” (Hepion Pharmaceuticals, Inc., priority 2020, published 2026).
Entries after “also recorded” stand apart in the source; their conditions may differ. Where a SMILES comes first, the peptide text is derived from it. [ ]: non-standard residue; d: D form. NMeThr(4R-Me,4-(CH2)6NHAc) = CN[C@H](C(=O)O)[C@H](O)[C@H](C)CCCCCCNC(C)=O; NMeL = CN[C@@H](CC(C)C)C(=O)O; NMeV = CN[C@H](C(=O)O)C(C)C; dNMeA = CN[C@H](C)C(=O)O; Abu = CC[C@H](N)C(=O)O

Experiments:
[1] = system: human platelet aggregation; assay: Platelet aggregometry (washed platelets, lumi-aggregometer, % Light Transmittance); format: cell-based
Description: (§1) Platelet isolation. Blood (40 ml) was obtained from healthy volunteers who had not taken any drugs known to affect platelet function for 2 weeks prior to the study. Prostacyclin-washed platelet suspensions (2.5×10^8/ml) were prepared in Tyrode's buffer.
Platelet aggregometry. Washed platelets (500 μl/test) were pre-incubated (2 minutes at 37° C.) in a lumi-aggregometer (Chronolog, Havertown, PA, USA) with either vehicle (0.1% DMSO) or CRV431 (0.01-3 μM). Platelet aggregation was then initiated with collagen (1 μg/mL) or thrombin (0.1 U/mL) (Chronolog) and monitored by Aggro-Link software for a further 6 minutes. Extent of platelet aggregation was measured as % Light Transmittance between minutes 2 and 6 and determined by Aggro-Link Software.
(§2) Statistics. Statistical analysis was performed using GraphPad Prism 7.0 software. All means are reported with SEM. One-way ANOVA with Dunnet's multiple comparisons test was performed for aggregation studies, and a Repeated-measures One-way ANOVA with Dunnet's multiple comparisons test was performed for procoagulant platelet formation studies. Each N represents an experiment from an independent blood donor. A P-value less than 0.05 was considered significant.

[2] = system: human procoagulant platelet formation (platelet PS exposure); assay: Procoagulant platelet formation (annexin-V-FITC binding to exposed phosphatidylserine, flow cytometry); format: cell-based
Description: as §1
Procoagulant platelet formation studies. […] Procoagulant platelet formation was assessed by measuring annexin-V-FITC binding to exposed phosphatidylserine (PS) by flow cytometry as described previously. Flow cytometry was performed utilizing a BD Fortessa X20 flow cytometer equipped with a blue (488 nm) laser and […] band pass filters to detect FITC. Percent PS-positive platelets were determined post-acquisition using FlowJo software.
as §2

Compound | inhibition of platelet aggregation (positive control) ([1]; single blood donor (FIG. 3B), agonist and concentration not given) | inhibition of platelet aggregation induced by collagen ([1]; collagen 1 μg/mL, CRV431 0.01-3 μM, washed human platelets, N=10, P>0.05) | inhibition of platelet aggregation at the highest concentration tested ([1]; single blood donor (FIG. 3A), highest concentration tested) | inhibition of platelet aggregation induced by thrombin ([1]; thrombin 0.1 U/mL, CRV431 0.01-3 μM, washed human platelets, N=9, P>0.05) | inhibition of platelet PS-exposure, a marker of procoagulant platelet formation ([2]; CRV431 at 1 and 3 μM, activated by collagen and thrombin, N=8, P<0.01 / P<0.001 vs. vehicle control) | percentage of phosphatidylserine (PS)-positive platelets ([2]; increasing concentrations of CRV431, induced by collagen (10 μg/ml) and thrombin (0.1 U/ml), flow cytometry)
CC(=O)Oc1ccccc1C(=O)O [acetylsalicylic acid, reference compound] | effectively inhibited aggregation; also recorded: platelet aggregation is inhibited | – | – | – | – | –
CC[C@@H]1NC(=O)[C@H]([C@H](O)[C@H](C)CCCCCCNC(C)=O)N(C)C(=O)[C@H](C(C)C)N(C)C(=O)[C@H](CC(C)C)N(C)C(=O)[C@H](CC(C)C)N(C)C(=O)[C@@H](C)NC(=O)[C@H](C)NC(=O)[C@H](CC(C)C)N(C)C(=O)[C@H](C(C)C)NC(=O)[C@H](CC(C)C)N(C)C(=O)[C@@H](C)N(C)C1=O [CRV431] (cyclo(A[dA][NMeL][NMeL][NMeV][NMeThr(4R-Me,4-(CH2)6NHAc)][Abu][dNMeA][NMeL]V[NMeL])) | – | did not inhibit platelet aggregation | does not inhibit platelet aggregation | did not inhibit platelet aggregation | significantly inhibited platelet PS-exposure | reduce the percentage of phosphatidylserine (PS)-positive platelets
